Measured values as given in ChEMBL document CHEMBL3611993, “Design, synthesis and biological activities of novel oxazolo[4,5-g]quinazolin-2(1H)-one derivatives as EGFR inhibitors” (Eur J Med Chem, 2015).
Calls of active or inactive are those of the source. No cut-off for these calls is given here.

Assays:
A498 = experiment: Antiproliferative activity against human A498 cells expressing EGFR and Src after 48 hrs by SRB assay; assay type: functional, cell-based; settings: A498, 48 h
[1] = biological target: Epidermal growth factor receptor (Homo sapiens, UniProt P00533); experiment: Inhibition of EGFR (unknown origin) assessed as incorporation of 33Pi after 1 hr by ELISA
Chain of Epidermal growth factor receptor (P00533 whole entry): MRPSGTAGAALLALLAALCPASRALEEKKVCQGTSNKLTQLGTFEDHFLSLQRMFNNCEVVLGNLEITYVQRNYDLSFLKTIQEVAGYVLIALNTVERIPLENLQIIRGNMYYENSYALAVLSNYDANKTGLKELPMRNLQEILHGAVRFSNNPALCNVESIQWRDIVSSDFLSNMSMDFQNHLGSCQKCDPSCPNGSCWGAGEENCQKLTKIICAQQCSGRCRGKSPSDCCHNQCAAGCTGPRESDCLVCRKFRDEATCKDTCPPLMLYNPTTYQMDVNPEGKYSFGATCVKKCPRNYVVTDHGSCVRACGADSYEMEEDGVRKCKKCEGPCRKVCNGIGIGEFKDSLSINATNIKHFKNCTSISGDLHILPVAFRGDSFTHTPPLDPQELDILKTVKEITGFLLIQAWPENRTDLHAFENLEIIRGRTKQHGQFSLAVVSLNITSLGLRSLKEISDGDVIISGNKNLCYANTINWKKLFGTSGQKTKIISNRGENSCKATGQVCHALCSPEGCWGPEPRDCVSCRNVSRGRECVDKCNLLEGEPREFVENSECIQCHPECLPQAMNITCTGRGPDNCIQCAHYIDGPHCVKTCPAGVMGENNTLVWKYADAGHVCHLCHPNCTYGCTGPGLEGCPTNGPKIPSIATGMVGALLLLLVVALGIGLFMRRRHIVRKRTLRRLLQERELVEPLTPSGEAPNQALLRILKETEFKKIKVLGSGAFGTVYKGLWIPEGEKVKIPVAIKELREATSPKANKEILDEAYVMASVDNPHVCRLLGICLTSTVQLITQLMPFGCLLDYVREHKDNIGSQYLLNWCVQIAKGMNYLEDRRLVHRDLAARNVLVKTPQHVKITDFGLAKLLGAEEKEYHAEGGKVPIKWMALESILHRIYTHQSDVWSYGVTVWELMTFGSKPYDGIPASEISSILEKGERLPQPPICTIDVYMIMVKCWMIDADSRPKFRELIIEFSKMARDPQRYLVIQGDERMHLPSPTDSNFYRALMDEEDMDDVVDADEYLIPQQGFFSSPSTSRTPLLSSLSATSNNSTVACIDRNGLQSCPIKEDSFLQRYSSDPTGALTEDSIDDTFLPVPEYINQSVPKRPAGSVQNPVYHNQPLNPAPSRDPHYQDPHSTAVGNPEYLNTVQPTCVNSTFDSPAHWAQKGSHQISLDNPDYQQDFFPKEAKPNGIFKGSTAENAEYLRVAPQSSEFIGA

KB = experiment: Antiproliferative activity against human KB cells expressing EGFR and Src after 48 hrs by SRB assay; assay type: functional, cell-based
Mus musculus [2] = experiment: Toxicity in mouse LLC cells allografted SCID mouse assessed as change in body weight at 100 mg/kg, po qd for 14 days; assay type: organism-based; settings: in vivo, 336 h
Mus musculus [3] = experiment: Toxicity in mouse LLC cells allografted SCID mouse assessed as mortality at 100 mg/kg, po qd for 14 days; assay type: organism-based; settings: in vivo, 336 h
[4] = test system: Lewis lung carcinoma cell line; experiment: Antitumor activity against mouse LLC cells allografted in SCID mouse assessed as extension of survival period at 100 mg/kg, po qd for 14 days; assay type: functional, organism-based
[5] = test system: Lewis lung carcinoma cell line; experiment: Antitumor activity against mouse LLC cells allografted in SCID mouse assessed as inhibition of tumor growth at 100 mg/kg, po qd for 14 days; assay type: functional, organism-based

| SMILES | IC50 [1] [µM] | IC50 (KB) [µM] | IC50 (A498) [µM] | also measured |
| --- | --- | --- | --- | --- |
| COCCn1c(=O)oc2cc3ncnc(Nc4ccc(OC)c(OC)c4)c3cc21 | 5.5 | – | – | – |
| CCOC(=O)CCCn1c(=O)oc2cc3ncnc(Nc4cc(C)cc(C)c4)c3cc21 | 1.5 | – | – | – |
| CCOC(=O)CCCn1c(=O)oc2cc3ncnc(N[C@H](C)c4ccccc4)c3cc21 | > 10 | – | – | – |
| CCOC(=O)CCCn1c(=O)oc2cc3ncnc(Nc4ccc(OCc5ccc(OC)cc5)c(Cl)c4)c3cc21 | > 10 | – | – | – |
| CCOC(=O)CCCn1c(=O)oc2cc3ncnc(Nc4cccc(O)c4)c3cc21 | 0.0087 | 3.7 | 7.6 | Activity (Mus musculus [2]): Toxic; Activity (Mus musculus [3]): Non-toxic; Activity [4]: inactive; growth inhibition (GI) [5]: Active |
| CCOC(=O)CCCn1c(=O)oc2cc3ncnc(Nc4ccc(OCc5ccccc5)c(Cl)c4)c3cc21 | > 10 | – | – | – |
| CCOC(=O)CCCn1c(=O)oc2cc3ncnc(N[C@@H](C)c4ccccc4)c3cc21 | > 10 | – | – | – |
| COCCn1c(=O)oc2cc3ncnc(Nc4ccc(OC)cc4)c3cc21 | 5.1 | 11.7 | 33.5 | – |
| C#Cc1cccc(Nc2ncnc3cc4oc(=O)n(CCCC(=O)OCC)c4cc23)c1 | 5.7 | – | – | – |
| CCOC(=O)CCCn1c(=O)oc2cc3ncnc(Nc4ccc(S(N)(=O)=O)cc4)c3cc21 | > 10 | 18.7 | 8 | – |
| CCOC(=O)CCCn1c(=O)oc2cc3ncnc(Nc4ccc(F)c(Cl)c4)c3cc21 | 7.8 | – | – | – |
| CCOC(=O)CCCn1c(=O)oc2cc3ncnc(Nc4ccc(C(=O)OCc5ccc(C#N)cc5)cc4)c3cc21 | > 10 | – | – | – |
| CCOC(=O)CCCn1c(=O)oc2cc3ncnc(Nc4ccc(OC)c(OC)c4)c3cc21 | > 10 | – | – | – |
| COCCn1c(=O)oc2cc3ncnc(Nc4ccc(Cl)cc4)c3cc21 | > 10 | – | – | – |
| CCOC(=O)CCCn1c(=O)oc2cc3ncnc(Nc4ccc(OCC)cc4)c3cc21 | > 10 | – | – | – |
| COCCn1c(=O)oc2cc3ncnc(Nc4cccc(OC(C)C)c4)c3cc21 | > 10 | – | – | – |
| C#Cc1cccc(Nc2ncnc3cc(OCCOC)c(OCCOC)cc23)c1 [ERLOTINIB] | – | – | – | Activity (Mus musculus [3]): Non-toxic; growth inhibition (GI) [5]: Active |
| CCOC(=O)CCCn1c(=O)oc2cc3ncnc(Nc4ccccc4)c3cc21 | > 10 | – | – | – |
| CCOC(=O)CCCn1c(=O)oc2cc3ncnc(Nc4ccc(OCc5ccccn5)cc4)c3cc21 | – | 16.6 | 47 | – |
| CCOC(=O)CCCn1c(=O)oc2cc3ncnc(Nc4ccc(C(=O)OCc5ccc(Cl)cc5)cc4)c3cc21 | – | 5.5 | 8.7 | – |
| COCCn1c(=O)oc2cc3ncnc(Nc4ccc(S(N)(=O)=O)cc4)c3cc21 | > 10 | – | – | – |
| CCOC(=O)CCCn1c(=O)oc2cc3ncnc(Nc4ccc(C(C)(C)C)cc4)c3cc21 | > 10 | – | – | – |
| CCOC(=O)CCCn1c(=O)oc2cc3ncnc(NCc4ccccc4)c3cc21 | > 10 | – | – | – |
| COCCn1c(=O)oc2cc3ncnc(Nc4ccc(C(C)(C)C)cc4)c3cc21 | > 10 | – | – | – |
| CCOC(=O)CCCn1c(=O)oc2cc3ncnc(Nc4ccc(C)cc4)c3cc21 | > 10 | – | – | – |

Further compounds by falling IC50 [1], results first:

| IC50 [1] [µM] | IC50 (KB) [µM] | SMILES | IC50 (A498) [µM] | also measured |
| --- | --- | --- | --- | --- |
| 1.3 | 6.1 | COCCn1c(=O)oc2cc3ncnc(Nc4ccc(OCc5ccc(Cl)cc5)c(Cl)c4)c3cc21 | 6.2 | – |
| 1.2 | – | CCOC(=O)CCCn1c(=O)oc2cc3ncnc(Nc4ccc(Cl)cc4)c3cc21 | – | – |
| 0.78 | – | CCOC(=O)CCCn1c(=O)oc2cc3ncnc(Nc4ccc(OCc5nccc(OCC(F)(F)F)c5C)cc4)c3cc21 | – | – |
| 0.56 | – | COCCn1c(=O)oc2cc3ncnc(Nc4cccc(C(C)=O)c4)c3cc21 | – | – |
| 0.47 | – | COCCn1c(=O)oc2cc3ncnc(Nc4ccc(F)c(Cl)c4)c3cc21 | – | – |
| 0.44 | 6.3 | CCOC(=O)c1ccc(O)c(Nc2ncnc3cc4oc(=O)n(CCOC)c4cc23)c1 | 17.1 | – |
| 0.34 | – | COCCn1c(=O)oc2cc3ncnc(Nc4ccc(OCc5nccc(OCC(F)(F)F)c5C)cc4)c3cc21 | – | – |
| 0.19 | – | C#Cc1cccc(Nc2ncnc3cc4oc(=O)n(CCOC)c4cc23)c1 | – | – |
| 0.16 | 18.6 | CCOC(=O)CCCn1c(=O)oc2cc3ncnc(Nc4ccc(OC(C)C)cc4)c3cc21 | 41.1 | – |
| 0.14 | 17.9 | CCOC(=O)CCCn1c(=O)oc2cc3ncnc(Nc4ccc(F)c(F)c4)c3cc21 | 36.4 | – |
| 0.13 | 38.4 | CCOC(=O)CCCn1c(=O)oc2cc3ncnc(Nc4ccc5[nH]ncc5c4)c3cc21 | 26.8 | – |
| 0.053 | – | CCOC(=O)CCCn1c(=O)oc2cc3ncnc(Nc4ccc(OCc5ccc(Cl)cc5)c(Cl)c4)c3cc21 | – | – |
| 0.026 | 1.1 | COCCn1c(=O)oc2cc3ncnc(Nc4ccc(F)c(F)c4)c3cc21 | 17.6 | – |
| 0.02 | 11.1 | CCOC(=O)CCCn1c(=O)oc2cc3ncnc(Nc4ccc(O)cc4)c3cc21 | 15.2 | – |
| 0.0073 | 19.5 | CCOC(=O)CCCn1c(=O)oc2cc3ncnc(Nc4cc(C(=O)OCC)ccc4O)c3cc21 | 61.6 | – |
